This note sets out measurements from US7507792B2, “MDA-7 proteins and methods of use thereof” (The Trustees of Columbia University In The City of New York, priority 1993, dated 2009).

Common to all, as to type: cell-based, human
The test system of one test is mda-5. Briefly: mda-5 expression (Northern blotting). The note with it: H0-1. The protocol: (§1) The mass excision of the library was performed using ExAssist helper phage as described above. The SOLR strain of Escherichia coli and cDNA phagemids were mixed at 37° C. for 15 min and plated onto LB plates containing ampicillin and IPTG/X-gal. White colonies were chosen at random, isolated and grown in LB medium. Plasmid minireps and restriction enzyme digestions were performed to confirm the presence of inserts. The inserts were isolated and used as robes for Northern blotting analysis (5,25). […] Radiolabeled probes were generated by random oligonucleotide priming (25). Prehybridization, hybridization, posthybridization washes, and autoradiography were performed as described (5,18,25).

The subject of another test is mda-9. The test is described as follows: mda-9 expression (Northern blotting). The note with it: H0-1. The protocol: as §1
In another test the test system is H0-1 cells. Briefly: Northern blotting analysis of steady-state mRNA levels. The following applies: FIG. 1 concentrations. The procedure:
Steady-state levels of specific mRNAs were determined by Northern blotting analysis of total RNA probed with appropriate ^32P-labeled gene probes as described previously (14-16). RNAs were analyzed from cells treated with inducer for 24 hours, treated for 24 hours with inducer followed by growth for 72 hours in the absence of inducer, or treated continuously for 96 hours with the inducer. The concentration of inducing compounds used were the same as those used for growth studies. The effect of conditioned medium on gene expression changes was determined by treating H0-1 cells for 24 hours with a 1:2 dilution of conditioned medium (equal volumes of conditioned medium and DMEM supplemented with 10% fetal bovine serum (DMEM-10) or for 96 hours with a 1:4 dilution of conditioned medium (1 vol. of conditioned medium to 3 vol. of DMEM-10). The probes used in the present study were specific for β-actin (17), γ-actin (17), c-jun (18), c-myc (19), fibronectin (20), gro/MGSA (21), HLA Class I antigen (22), HLA Class II antigen (HLA-DRβ) (22), α5 integrin (23), β1 integrin (24), ISG-15 (25), ISG-54 (25), jun-B (26), and tenascin (27). Northern blots were also probed with a ^32P-labeled GAPDH gene (15) to verify similar mRNA expression under the various experimental conditions. Following hybridization, the filters were washed and exposed for autoradiography.

For another test, the system named is mda-6 (WAF1/CIP1/SDI1). The following applies: HL-525, RA 1 μM; for time of treatment at which mda-6 expression is induced: TPA 3 nM, Vit D3 400 nM, 1 to 12 h test period. The protocol:
HL-60 cells were originally provided by Dr. R. C. Gallo (National Cancer Institute, Bethesda, Md.) (Collins et al., 1978; Huberman & Callaham, 1979). HL-60 cells designated HL-525 were derived by cloning HL-60 cells after subculturing 102 times in the presence of increasing concentrations (up to 3 μM) of TPA at 5- to 8-day intervals (Homma et al., 1986; Mitchell et al., 1986). […] Prior to the experiments described in this study, the HL-525 cells were subcultured more than 20 times in the absence of TPA. Cells were grown in 100-mm tissue culture dishes in RPMI 1640 medium supplemented with 20% fetal bovine serum, penicillin (100 units/ml) and streptomycin (100 μg/ml) (Grand Island Biological Co., NY) at 37° C. in an atmosphere of 5% CO2 in air in a humidified incubator. The 1,25-(OH)2D3(Vit D3) and TPA were dissolved in a final concentration of 0.01% DMSO, and all-trans retinoic acid (RA) was dissolved in 0.1% DMSO in culture medium. […] Control cultures were treated with DMSO at a final concentration of 0.1% in culture medium. For experiments designed to test the effect of DMSO on HL-60 and HL-525 cells, DMSO was added to tissue culture medium at a final concentration of 1%. Stock solutions of CHX (10 mg/ml) were prepared in culture medium. CHX was added at a final concentration of 10 μg/ml. To examine a requirement for protein synthesis on mda-6 gene expression, HL-60 or HL-525 cells were seeded into 150 mm Petri dishes (5×10^5 cells/ml) in 30 ml of medium. CHX was added to a final concentration of 10 μg/ml 15 min prior to the addition of TPA to 3 nM. Cells were harvested at various times after addition of TPA for subsequent RNA isolation and analysis.
RNA was purified by centrifugation through a CsC1 cushion as described by Chirgwin et al. (1979). Ten μg of RNA was denatured with glyoxal/DMSO, electrophoresed on 1.0% agarose gels, transferred to nylon membranes, hybridized to a ^32P-labeled mda-6 probe (Jiang and Fisher, 1993) and then after stripping the membrane hybridized to a ^32P-labeled rat GAPDH probe (Fort et al., 1985), as described previously (Reddy et at., 1991; Su et al., 1991; Jiang et al., 1992). Following hybridization, the filters were washed and exposed for autoradiography (Reddy et al., 1991; Su et al., 1991; Jiang et al., 1992). mda-6 and GAPDH gene expression were also determined by reverse transcription-polymerase chain reaction (RT-PCR) as described (Adollahi et al. 1991; Lin et al., 1994). Total cytoplasmic RNA was treated with 0.5 units DNase (Boehringer-Mannheim Biochemicals)/μg RNA in 15% glycerol, 10 mM Tris, pH 7.5, 2.5 mM MgCl2, 0.1 mM EDTA, 80 mM KC1, 1 mM CaCl2 and 1 unit/ml RNasin (Promega) at 30° C. for 10 min. RNA was extracted with phenol-chloroform, precipitated with sodium acetate/ethanol and RNA pellets were resuspended in diethylpyrocarbonate-treated H2O. One μg of total RNA was reverse transcribed with 200 units of murine leukemia virus reverse transcriptase (Bethesda Research Laboratories) in 20 μl containing 1 mM deoxyribonucleotide triphosphates, 4 mM MgCl2, 10 mM Tris, pH 8.3, 50 mM KC1, 0.001% gelatin and 0.2 μg oligo-dT primer. Samples were diluted to 100 μl with buffer containing 0.2 mM deoxyribonucleotide triphosphates, 2 mM MgCl2, 10 mM Tris, pH 8.3, 50 mM KC1 and 0.001% gelatin. […]

Setting [1] is: 24 hours, doses of FIG. 19, phenyl butyrate 24 hours, 4 days or 7 days.
Where [2] appears, read: 96 hours, doses of FIG. 15 legend.

For `C=C(C)[C@@]12O[C@@]3(c4ccccc4)O[C@@H]1[C@@H]1[C@@H]4O[C@]4(CO)[C@@H](O)[C@]4(O)C(=O)C(C)=C[C@H]4[C@@]1(O3)[C@H](C)[C@H]2OC(=O)/C=C/C=C/c1ccccc1` [MEZ, mezerein], the mda-5 expression result with mda-5 (setting [1]) is given as “No change in expression”. In the test with mda-5 (setting [2]), the mda-5 expression entry was “No change in expression”. Further, the mda-9 expression result in the test with mda-9 (setting [1]) is on record as “Increased expression”. Further, the mda-9 expression result with mda-9 (setting [2]) was “No change in mda-9 expression”. Also, in the test with H0-1 cells (96 h), the “HLA Class I antigen gene expression” value is listed as “did not significantly alter”, the fibronectin expression result was “less potent”, the “induction of gro/MGSA gene expression” value is recorded as “did not” and the tenascin expression entry was “decreased tenascin expression”. In the test with H0-1 cells (96 hours), the “c-jun and jun-B expression” value was “increase”; the c-myc expression result is listed as “downregulated”.
For the molecule `CC1=C(/C=C/C(C)=C/C=C/C(C)=C/C(=O)O)C(C)(C)CCC1` [RA, trans-retinoic acid], the mda-5 expression result in the test on mda-5 (setting [2]) is “No change in expression”. For the same molecule, in the test on mda-6 (WAF1/CIP1/SDI1) (extended treatment 12 h to 6 d), the “time of treatment at which mda-6 expression is detected” value amounted to 2 days. Also, in the test with mda-6 (WAF1/CIP1/SDI1), the “time of treatment at which mda-6 expression is induced” value was above 12 h. Moreover, the mda-9 expression result in the test on mda-9 (setting [2]) is given as “No change in mda-9 expression”. In the test on H0-1 cells (96 h), the “HLA Class I antigen gene expression” value was “did not significantly alter”, the fibronectin expression result is “least effective”, the “induction of gro/MGSA gene expression” value is given as “did not” and the tenascin expression result is given as “decreased tenascin expression”. Besides, in the test on H0-1 cells (96 h), the α5 integrin expression result is reported as “reduced”; the “β-actin and γ-actin expression” value is “did not significantly alter”.
Turning to `CCCCCCCCCCCCCC(=O)O[C@@H]1[C@@H](C)[C@@]2(O)[C@@H](C=C(CO)C[C@]3(O)C(=O)C(C)=C[C@@H]23)[C@@H]2C(C)(C)[C@]12OC(C)=O` [TPA, 12-O-tetradecanoyl-phorbol-13-acetate], the “time of treatment at which mda-6 expression is induced” value in the test with mda-6 (WAF1/CIP1/SDI1) amounted to 12 h.
